The subject of data set [1] is rabbit articular chondrocytes. Briefly: Suppression of terminal differentiation of rabbit articular chondrocytes (alkaline phosphatase and alizarin red staining). The conditions noted are these: BMP-2 100 ng/mL, Compound 7 10^−7 to 10^−5 mol/L, PTH(1-34) 10^−10 to 10^−7 mol/L. It counts as cell-based.
Method: NZW rabbits (4-week old, Oriental Yeast Co., Ltd.) were euthanized, and then the articular cartilage of the lower leg bone was collected, and transferred to a 50-mL test tube (Nippon Becton Dickinson Company). PBS (Nacalai Tesque, Inc.) containing 1% trypsin (Wako Pure Chemical Industries, Ltd.) was added to this, and the soft tissue was digested at 37° C. for one hour. This was followed by centrifugation at 1,200 rpm for five minutes, then supernatant was removed and PBS(−) was added to suspend the cartilage tissue. This was centrifuged at 1,200 rpm for five minutes, followed by removal of the supernatant, and washed three times by suspending in PBS(−). This was centrifuged at 1,200 rpm for five minutes, and then the cell pellet was digested by treatment with DMEM (Life Technologies Japan, Ltd.) containing 0.2% Type II collagenase (CLS-2, Worthington Biochemical Corp.) at 37° C. for three hours. Fetal bovine serum (Life Technologies Japan, Ltd.) was added at 10% v/v to stop the reaction, and this was vigorously pipetted using a 10-mL pipette (Nippon Becton Dickinson Company) to isolate the chondrocytes. This was centrifuged at 1,200 rpm for five minutes, followed by removal of the supernatant, and washed three times by suspending in 10% FCS-containing DMEM, and the chondrocytes were seeded at 1×10^4 cells/well on an I-type collagen-coated 96-well culture plate (AGC TECHNO GLASS CO., LTD.). Medium exchange was performed three times a week; and after the cells reached confluency, they were cultured in DMEM containing 100 μg/mL L-ascorbic acid phosphate magnesium salt n-hydrate (Wako Pure Chemical Industries, Ltd.), 10 mmol/L β-glycerophosphate pentahydrate (Wako Pure Chemical Industries, Ltd.) and 10% FCS. The following conditions were used to culture the cells, and alkaline phosphatase staining (cultured for 14 days) and alizarin red staining (cultured for 21 days) were performed to evaluate terminal differentiation of chondrocytes.
Alkaline phosphatase staining was performed by discarding the medium, then washing the chondrocytes once with 200 mmol/L Tris-HCl pH8.2 buffer, staining the cells according to the protocol supplied with the alkaline phosphatase staining kit (Vector Red Alkaline Phosphatase Substrate Kit I, Vector Laboratories, Inc.), and taking photographs with an inverted microscope (Nikon Corporation) (4× objective).
Alizarin red staining was performed by discarding the medium, then washing the chondrocytes twice with PBS, fixing the cells using 100% ethanol (Wako Pure Chemical Industries Ltd.) for 15 minutes, discarding the ethanol, and then staining with 1% alizarin red S (Wako Pure Chemical Industries Ltd.) for 15 minutes, followed by washing with distilled water; and photographs were taken with an inverted microscope.
A further data set has as its system rat hepatocyte. Kind of data set: Metabolic stability using rat hepatocyte. The class given is in vitro ADME. Here is the method:
Liver cells were prepared from the liver of rats (SD, female) by a collagenase perfusion method. A compound of the Reference Examples or a Comparative Example was added, and this was incubated at 37° C. for a specified amount of time, followed by addition of a reaction-stopping solution. The concentration of the parent compound at each reaction time was measured using LC/MS/MS, and inherent clearance (μL/10^6 cells/min) was calculated from the slope of the reaction time versus residual rate.
• Cell concentration: 1×10^6 cells/mL • Compound concentration: 1 μM • Medium: Williams' medium E • Reaction time: 0, 15, 30, 60, 120, and 240 minutes • Reaction-stopping solution: acetonitrile/2-propanol (4/6, v/v)

The next data set addresses T1, human PTH1R (Homo sapiens, UniProt Q03431).
T1 construct: expressed in transfected cells; host or cells: HKRK-B7 (LLC-PK1 porcine kidney cells stably expressing human PTH1R)
T1 sequence (Q03431 27-593): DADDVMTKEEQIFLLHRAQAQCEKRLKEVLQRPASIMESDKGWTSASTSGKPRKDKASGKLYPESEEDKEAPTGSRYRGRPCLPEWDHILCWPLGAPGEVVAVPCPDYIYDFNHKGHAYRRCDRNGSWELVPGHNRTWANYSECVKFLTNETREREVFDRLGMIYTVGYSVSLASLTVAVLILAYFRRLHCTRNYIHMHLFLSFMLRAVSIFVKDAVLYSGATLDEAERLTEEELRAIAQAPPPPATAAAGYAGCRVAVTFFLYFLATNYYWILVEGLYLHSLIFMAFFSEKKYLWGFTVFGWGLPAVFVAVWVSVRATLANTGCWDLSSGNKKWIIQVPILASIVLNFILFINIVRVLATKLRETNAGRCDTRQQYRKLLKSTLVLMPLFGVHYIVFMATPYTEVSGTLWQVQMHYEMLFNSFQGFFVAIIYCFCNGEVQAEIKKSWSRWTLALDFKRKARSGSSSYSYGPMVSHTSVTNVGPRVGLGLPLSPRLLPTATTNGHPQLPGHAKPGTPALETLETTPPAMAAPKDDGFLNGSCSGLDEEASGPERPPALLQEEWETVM
Kind of data set: In vitro cAMP signal activity via the human PTH1R (HKRK-B7 cells). It counts as cell-based. The settings on record: concentration at 20% cAMP signaling activity, human PTH(1-34) at 100 nM = 100%. Here is the method: Human PTH(1-34) and calcitonin were purchased from Peptide Institute, Inc. (Osaka, Japan), dissolved in 10 mM acetic acid to 1 mM and stored in a −80° C. freezer.
Cells were cultured in Dulbecco's modified Eagle's medium (DMEM) supplemented with 10% fetal bovine serum (Hyclone), 100 units/ml penicillin G and 100 μg/ml streptomycin sulfate (Invitrogen Corp) at 37° C. in a humidified atmosphere containing 5% CO2.
cAMP signal transduction analysis utilized LLC-PK1 cells not expressing the PTH1R, and HKRK-B7 cells, that is, LLC-PK1 cells overexpressing the human PTH1R at 9.5×10^5 receptors/cell (Takasu et al., J. Bone. Miner. Res. 14:11-20, 1999).
HKRK-B7 or LLC-PK1 cells were seeded into a 96-well plate at 1×10^5 cells/well and incubated overnight. On the following day, 50 μl of cAMP assay buffer (DMEM, 2 mM IBMX, 0.2 mg/ml bovine serum albumin, 35 mM Hepes-NaOH, pH 7.4) containing human PTH(1-34) or each compound was added and the plate was placed in a 37° C. incubator. The cells were incubated for 20 minutes. After removing the medium, the cells were washed with 100 μl of cAMP assay buffer once. The plate was placed on dry ice powder to freeze the cells and then removed from the dry ice. The cells were lysed with 40 μl of 50 mM HCl and frozen again on dry ice. The amount of intracellular cAMP produced was measured using a commercially available cAMP EIA kit (Biotrack cAMP EIA system, GE health care).
Analyses were performed using a variable gradient S-shaped dose-response curve equation.

The test system of data set [2] is model rabbits with partially removed meniscus. Briefly: Model rabbits with partially removed meniscus (osteoarthritis model), lesion area of articular cartilage. The class given is in vivo, rabbit. The settings on record: continuous administration to the knee joint by osmotic pump, 3.0 or 30 μg/mL, 14 days after surgery. The text has this: Twelve-week old male NZW rabbits (Oriental Yeast Co., Ltd.) were acclimated for five days, and then under isoflurane anesthesia, the lateral skin of the left knee joint was incised and the lateral collateral ligament and the sesamoid ligament were surgically removed to expose the lateral meniscus. The center of the lateral meniscus was excised at a width of 3 to 4 mm to produce an osteoarthritis model (Kikuchi T et al., Osteoarth Cart 1999; 4(2): 99-110). The tips of the three polyethylene tubes (PE60, Nippon Becton Dickinson Company) connected to three osmotic pumps (2ML1, Durect, Road Cupertino, Calif., US) that were embedded subcutaneously in the left femur were placed into the joint, and the drug solution was continuously administered to the knee joint. Each osmotic pump was filled with any of 1) vehicle control (50% dimethyl sulfoxide/50% physiological saline v/v); 2) Compound 7 at 3.0 μg/mL; or 3) Compound 7 at 30 μg/mL. […] Images of the surface structure of the lower leg bone were taken on a digital microscope (VHX-2000, Keyence Corporation), the area of the Indian ink-positive lesion site and the area of the entire lateral condyle were determined, and the proportion of the lesion site occupying the entire lateral condyle was calculated (FIG. 6).

A word on the EC20: it is the concentration needed for an effect of 20%. High values mean a need for much substance, low ones an effect from little substance. Turning to `Cc1cc(N2C(=O)NC(=O)C2(C)C)cc(C)c1CCS(=O)(=O)N1CCC2(CC1)N=C(c1ccc(OC(F)(F)F)cc1)NC2=O` [Compound 7, 1-(3,5-dimethyl-4-(2-((4-oxo-2-(4-(trifluoromethoxy)phenyl)-1,3,8-triazaspiro[4.5]deca-1-en-8-yl)sulfonyl)ethyl)phenyl)-5,5-dimethylimidazolidine-2,4-dione], the “alkaline phosphatase activity (alkaline phosphatase staining)” value in data set [1] (cultured for 14 days) is listed as “suppressed alkaline phosphatase activity in a concentration-dependent manner”. Besides, the “alizarin red staining property (calcification)” value in data set [1] (cultured for 21 days) was “suppressed the alizarin staining property in a concentration-dependent manner”. Moreover, the “rat hepatocyte metabolic stability compared to Comparative Examples 1, 2, 3, 5, and 6 (in words)” value in the data set with rat hepatocyte is given as “increased”. At human PTH1R, this compound showed an EC20 of 1.1 µM. For the same compound, in data set [2], the “area of the lesion site in the articular cartilage of the lower leg bone” value is recorded as “reduce the area of the lesion site in a dose-dependent manner”.

The values above are taken from patent US9993462B2, “Hydantoin derivative-containing pharmaceutical composition” (Chugai Seiyaku Kabushiki Kaisha, priority 2014, dated 2018).
